pEC50: −log10 of the molar value. Where two headings read alike, the source gives them in different places.
Key:
SARS-COV-2 [1] = experiment: SARS-COV-2 viral RNA synthesis in HuH-7 cells (real time RT-PCR); format: cell-based
SARS-COV-2 [2] = experiment: SARS-COV-2 viral RNA synthesis in Calu-3 cells (real time RT-PCR); format: cell-based; settings: 1.0 μM
SARS-COV-2 [3] = experiment: SARS-COV-2 RNA loads in human primary monocytes; format: cell-based; settings: 24 h
Experimental: FIG. 5A, 5B and 5C. The compounds impair SARS-COV-2 RNA synthesis and SARS-COV-2-induced release of inflammatory mediators in human primary monocytes.
Human primary monocytes were obtained after 3 h of plastic adherence of peripheral blood mononuclear cells (PBMCs). PBMCs were isolated from healthy donors by density gradient centrifugation (Ficoll-Paque, GE Healthcare). PBMCs (2.0×10^6 cells) were plated onto 48-well plates (NalgeNunc) in RPMI-1640 without serum for 2 to 4 h. Non-adherent cells were removed, and the remaining monocytes were maintained in DMEM with 5% human serum (HS; Millipore) and penicillin/streptomycin. Monocytes were infected at MOI of 0.1. After 1 h inoculation period, cells were washed with phosphate saline buffer (PBS) to remove unbounded viruses and treated with 1 μM of the indicated compounds. After 24 h after infection, cell monolayers werc lysed total viral RNA was extracted, quantitative RT-PCR was performed, to detect the SARS-COV-2 and the housekeeping gene RNAse P.

SARS-COV-2 [4] = experiment: Combination with SARS-COV-2 nsp14 (exonuclease) inhibitors in Calu-3 cells, infectious virus titers; format: cell-based
SARS-COV-2 viral RNA = experiment: Immunoprecipitation of viral RNA with anti-kinetin antibody, RT-PCR; format: cell-based; settings: SARS-COV-2-infected calu-3 cells
[5] = Pharmacokinetics of MB-905 in plasma of the rat; format: in vivo
Experimental: The pharmacokinetic assay was performed by using mice of the CDI strain (20-30 g) or rat Sprague Dawley (250-300 g) of both sexes from the Center of Innovation and Preclinical Studies (CIEnP) vivarium. […] After oral […] administration, blood was collected at times of 0.25, 0.5, 1, 2, 4, 8 and 24, while after intravenous administration the collection times were 0.083, 0.25, 0.5, 1, 2 and 4 hours. […] The pharmacokinetic parameters evaluated were: AUC (AUC 0-T or, AUC 0-∞), Cmax, Tmax, T1/2, volume of distribution, clearance, elimination constant and bioavailability.

SARS-COV-2 VoC gamma = format: in vivo, mice
[6] = test system: murine hepatitis virus (MHV); format: in vivo, mice; settings: DAC 60 mg/kg/day
[7] = test system: mouse bone marrow polychromatic erythrocytes; experiment: Micronucleus test in mouse bone marrow; format: in vivo; settings: mice
Experimental: The ratio of polychromatic to normochromatic erythrocytes and the count of micronuclei were determined. This assay was conducted in compliance with the GLP principles.

[8] = Maximum tolerated dose (OECD 425) and tolerability; format: in vivo; settings: mice
Experimental: The present assay was designed to investigate the safety and tolerability of MB-905. For the MTD assay (OECD 425), mice (3 animals of each sex/group) were divided into five experimental groups and the up and down procedure was applied to which 175 mg/kg was used as the first dose. […] Mortality, morbidity, body weight, food consumption, general and detailed clinical signs of toxicity were evaluated. At necropsy, vital (brain, heart, liver, spleen, kidneys and adrenal glands) and reproductive organs (ovaries, testicles and epididymis) were carefully removed, weighed and stored for further analysis (if necessary).

[9] = Cardiovascular safety pharmacology by telemetry; settings: rats; 50 or 250 mg/Kg oral, single or repeated (7 days)
Experimental: Data are presented as mean±S.E.M. Statistical analysis was performed by two-way ANOVA followed by Bonferroni post hoc test. n=4-6 animals per group.

SARS-COV-2 [10] = test system: SARS-COV-2
[11] = Severe acute respiratory syndrome coronavirus 2, Calu-3, alone or in combination as labelled
[12] = both sexes, Sprague Dawley, rat, plasma, po, 10 mg/kg, 10 mg/kg (v.o.)
[13] = both sexes, Sprague Dawley, rat, plasma, po, 30 mg/kg, 30 mg/kg (v.o.)
[14] = 140 mg/kg/day alone and in combination with DTG
[15] = 140 mg/kg/day, vs untreated animals
[16] = Severe acute respiratory syndrome coronavirus 2, Calu-3, 72 h, Calu-3 (MOI 0.5 72 h), daily treatment
[17] = Severe acute respiratory syndrome coronavirus 2, Calu-3, 72 h, Calu-3 (MOI 0.5 72 h), single moment treatment
[18] = Severe acute respiratory syndrome coronavirus 2, Calu-3, Table 6, Calu-3, daily treatment
[19] = Severe acute respiratory syndrome coronavirus 2, Calu-3, Table 6, Calu-3, single treatment

c1coc(CNc2ncnc3[nH]cnc23)c1 [MB-905, kinetin]
pEC50 (SARS-COV-2 [1]; Severe acute respiratory syndrome coronavirus 2, Huh-7 (MOI 0.1 48 h), read-out: EC50): 7.00 | anti-coronavirus activity with simultaneous adenine (SARS-COV-2 [1]; huh-7, adenine at 10 μM): prevented | anti-coronavirus activity (SARS-COV-2 replication) (SARS-COV-2 [1]; huh-7, treatment just after inoculation): concentration dependent inhibition | inhibition of SARS-COV-2 RNA synthesis (SARS-COV-2 [2]): best profiles | viral RNA levels/cell (SARS-COV-2 [3]): reduced | pEC50 (SARS-COV-2 [4]; [11]): 6.52 | EC90 (SARS-COV-2 [4]; [11]): 8 µM | effect of co-treatment with raltegravir or dolutegravir (iEXO) on inhibition of SARS-COV-2 (SARS-COV-2 [4]; calu-3, drug 10 μM, raltegravir or dolutegravir 5 μM): synergistic | levels of N6-furfuryladenine in viral RNA vs isotype control and nil-treated cells (SARS-COV-2 viral RNA): more than 10 fold | F ([5]; 3 mg/kg (i.v.)): 100% | Cmax ([5]; 3 mg/kg (i.v.), 3 mg/kg): 123.61 ng/mL | Vz ([5]; 3 mg/kg (i.v.), 3 mg/kg): 10.40 L/kg | CL ([5]; 10 mg/kg (v.o.)): 241.09 mL/min/kg | Ke ([5]; 10 mg/kg (v.o.)): 0.47 h⁻¹ | Vz ([5]; 10 mg/kg (v.o.)): 30.37 L/kg | Cmax ([5]; 10 mg/kg (v.o.), 10 mg/kg): 549.96 ng/mL | F ([5]; 10 mg/kg (v.o.), 10 mg/kg): 98.8% | T1/2 ([5]; 10 mg/kg (v.o.), 10 mg/kg): 1.45 h | F ([5]; 30 mg/kg (v.o.)): 64.7% | Ke ([5]; 30 mg/kg (v.o.)): 0.18 h⁻¹ | Vz ([5]; 30 mg/kg (v.o.)): 109.18 L/kg | CL ([5]; 30 mg/kg (v.o.), 30 mg/kg): 330.57 mL/min/kg | Cmax ([5]; both sexes, Sprague Dawley, rat, plasma, iv, 3 mg/kg, 3 mg/kg (i.v.), read-out: Cmax): 99.4 ng/mL | Vd ([5]; both sexes, Sprague Dawley, rat, plasma, iv, 3 mg/kg, 3 mg/kg (i.v.), read-out: Vz): 13.4 L/kg | AUC [5, 12]: 762 ng·h/mL | AUC(0-t) [5, 12]: 666 ng·h/mL | Tmax [5, 12]: 15 min | half-life [5, 12]: 87.6 min | Cmax ([5]; both sexes, Sprague Dawley, rat, plasma, po, 10 mg/kg, 10 mg/kg (v.o.), read-out: Cmax): 545 ng/mL | AUC [5, 13]: 1500 ng·h/mL | AUC(0-t) [5, 13]: 1500 ng·h/mL | body weight (SARS-COV-2 VoC gamma; [14]): sustain their masses beyond the threshold of euthanasia | overall clinical scores (SARS-COV-2 VoC gamma; [14]): improved | virus RNA levels in the lungs (SARS-COV-2 VoC gamma; 140 mg/kg/day with or without DTG): did not alter | infectious titers (SARS-COV-2 VoC gamma; 140 mg/kg/day with or without DTG, BAL): decreased significantly | IL-6 in BAL (SARS-COV-2 VoC gamma; [15]): reduced | KC in BAL (SARS-COV-2 VoC gamma; [15]): reduced | TNF-α in BAL (SARS-COV-2 VoC gamma; [15]): reduced | inflammatory cells counts in BAL (SARS-COV-2 VoC gamma; [15]): reduced | survival (SARS-COV-2 VoC gamma; 70 mg/kg/day oral with DTG): Higher survival rates | survival (SARS-COV-2 VoC gamma; 140 mg/kg/day oral, combined or not with DTG): Higher survival rates | lung necrosis (SARS-COV-2 VoC gamma; alone or combined with DTG): reduced | weight recovery ([6]; MB-905 250 mg/kg/day): did not allow complete weight recovery | inflammatory cells in the respiratory tract ([6]; day 11, MB-905 250 mg/kg/day): less inflammatory cells | mortality ([6]; oral gavage daily from day 2, MB-905 250 mg/kg/day): reduced the mice mortality by half | MNPCE/4,000 PCE (Mean ± S.D.) ([7]; 32 mg/Kg p.o.): 8.50 ± 4.50 | MNPCE/4,000 PCE (Mean ± S.D.) ([7]; 125 mg/Kg p.o.): 8.50 ± 3.81 | MNPCE/4,000 PCE (Mean ± S.D.) ([7]; 500 mg/Kg p.o.): 9.00 ± 2.45 | NOAEL at 7 days ([8]; both sexes, mouse, in vivo, oral, MTD study): 550 mg/kg | clinical signs ([8]; 1,150 mg/kg oral): piloerection, reduced touch response, prostration, loss of grasping strength, decrease in body temperature and death | death after compound administration, time ([8]; 1,150 mg/kg oral): ≤ 4 h | clinical signs ([8]; 175, 550 and 850 mg/kg oral): did not result in any observable clinical signs indicating toxicity | morbidity and mortality ([8]; 175, 550 and 850 mg/kg oral): did not result in any signs indicative of toxicity | body weight change and food consumption ([8]; single 175, 550 or 850 mg/kg): not observed any significant change | organs weight ([8]; single oral 175, 550 or 850 mg/kg): did not show any changes | cardiovascular hemodynamic parameters (systolic, diastolic, mean blood pressure, heart rate) [9]: did not induces any changes | pEC50 (SARS-COV-2 [10]; [16]): 7.52 | EC90 (SARS-COV-2 [10]; [16]): 2100 nM | pEC50 (SARS-COV-2 [10]; [17]): 6.51 | EC90 (SARS-COV-2 [10]; [17]): 2800 nM | pEC50 (SARS-COV-2 [10]; [18]): 7.52 | EC90 (SARS-COV-2 [10]; [18]): 2100 nM | pEC50 (SARS-COV-2 [10]; [19]): 6.51 | EC90 (SARS-COV-2 [10]; [19]): 2800 nM | anti-coronavirus activity with simultaneous adenine (SARS-COV-2 [10]; calu-3, adenine at 10 μM): prevented | anti-coronavirus activity (SARS-COV-2 replication) (SARS-COV-2 [10]; calu-3, treatment just after inoculation): concentration dependent inhibition

From patent US20240207302A1, “ANTIVIRAL COMPOUNDS, METHODS FOR THE MANUFACTURING OF COMPOUNDS, ANTIVIRAL PHARMACEUTICAL COMPOSITION, USE OF THE COMPOUNDS AND METHOD FOR THE ORAL TREATMENT OF CORONAVIRUS INFECTION AND RELATED DISEASES THEREOF” (priority 2021, published 2024)
